Results as given in ChEMBL document CHEMBL3044990, “Synthesis and Insecticidal Activity of 5-Dimethylamino-1, 3dithianes” (1991).
Converted amounts (≈) assume the structure as drawn.

Legend:
Format in all cases: functional
Spodoptera litura = assay: Insecticidal activity against third-instar larvae of Spodoptera litura in soybean seedlings assessed as mortality at 500 ppm after 48 hr
[1] = tested on: Henosepilachna vigintioctopunctata; assay: Insecticidal activity against third-instar larvae of Henosepilachna vigintioctopunctata assessed as mortality after 2 days; conditions: 48 h
Tetranychus urticae = assay: Insecticidal activity against Tetranychus urticae (two-spotted spider mite) in kidney bean plant leaf assessed as mortality at 500 ppm after 2 days; conditions: 48 h
Laodelphax striatellus = assay: Insecticidal activity against 3rd instar larva of Laodelphax striatella (small brown planthopper) assessed as mortality at 50 ppm after 6 days; conditions: 144 h
Chilo suppressalis = assay: Insecticidal activity against 5th instar larva of Chilo suppressalis assessed as mortality at 50 ug/g after 48 hr

| Structure (SMILES) | mortality at 500 ppm (Spodoptera litura) [%] | LC50 [1] [µg/mL] | mortality at 500 ppm (Tetranychus urticae) [%] | mortality at 50 ppm (Laodelphax striatellus) [%] | mortality (Chilo suppressalis) [%] |
| --- | --- | --- | --- | --- | --- |
| CN(C)C1CSC(C#N)(C(=O)NC2CC2)SC1 (centres undefined) | 50 | 8 (≈ 29.5 µM) | 40 | 25 | 100 |
| CN(C)C1CSC(C#N)(c2cccc(Br)c2)SC1 (centres undefined) |  | 15 (≈ 43.7 µM) | 100 | 70 | 100 |
| CN(C)C1CSC(C#N)(c2c(Cl)cccc2Cl)SC1 (centres undefined) |  | 15 (≈ 45 µM) | 80 | 99 | 100 |
| CN(C)C1CSC(C#N)(c2cc(F)ccc2F)SC1 (centres undefined) |  | 30 (≈ 99.9 µM) | 100 | 30 | 100 |
| Cc1ccc(C2(C#N)SCC(N(C)C)CS2)cc1 (centres undefined) |  | 25 (≈ 89.8 µM) | 100 | 85 | 100 |
| CN(C)C1CSC(C#N)(C(=O)NC(C)(C)C)SC1 (centres undefined) | 80 | 20 (≈ 69.6 µM) | 100 | 45 | 100 |
| CCCCCCNC(=O)C1(C#N)SCC(N(C)C)CS1 (centres undefined) | 70 | 10 (≈ 31.7 µM) | 100 | 65 | 100 |
| CCCCCNC(=O)C1(C#N)SCC(N(C)C)CS1 (centres undefined) | 50 | 10 (≈ 33.2 µM) | 50 | 29 | 100 |
| CN(C)C1CSSC1 [NEREISTOXIN] | 90 |  | 50 | 80 | 100 |
| CCCCCCCNC(=O)C1(C#N)SCC(N(C)C)CS1 (centres undefined) | 80 | 23 (≈ 69.8 µM) | 90 | 80 | 100 |
| COc1ccccc1C1(C#N)SCC(N(C)C)CS1 (centres undefined) |  | 30 (≈ 102 µM) | 100 | 20 | 100 |
| CCNC(=O)C1(C#N)SCC(N(C)C)CS1 (centres undefined) | 80 | 6 (≈ 23.1 µM) | 90 | 20 | 100 |
| CC(C)N(C(=O)C1(C#N)SCC(N(C)C)CS1)C(C)C (centres undefined) | 60 | 16 (≈ 50.7 µM) | 100 | 26 | 100 |
| CN(C)C1CSC(C#N)(c2ccccc2[N+](=O)[O-])SC1 (centres undefined) |  | 19 (≈ 61.4 µM) | 70 | 85 | 100 |
| CCCCCCCCCNC(=O)C1(C#N)SCC(N(C)C)CS1 (centres undefined) | 90 | 23 (≈ 64.3 µM) | 100 | 100 | 100 |
| COc1ccc(C2(C#N)SCC(N(C)C)CS2)cc1 (centres undefined) |  | 35 (≈ 119 µM) | 100 | 20 | 100 |
| CCCCCCCCCCCCCCNC(=O)C1(C#N)SCC(N(C)C)CS1 (centres undefined) | 70 | 33 (≈ 77.2 µM) | 70 | 25 | 100 |
| CN(C)C1CSC(C#N)(c2cc(Cl)cc(Cl)c2)SC1 (centres undefined) |  | 133 (≈ 399 µM) | 100 | 55 | 100 |
| Cc1ccccc1C1(C#N)SCC(N(C)C)CS1 (centres undefined) |  | 100 (≈ 359 µM) | 60 | 20 | 100 |
| CNC(=O)C1(C#N)SCC(N(C)C)CS1 (centres undefined) | 90 | 25 (≈ 102 µM) | 100 | 50 | 100 |
| CN(C)C1CSC(C#N)(C(=O)N2CCCC2)SC1 (centres undefined) | 20 | 10 (≈ 35 µM) | 100 | 25 | 100 |
| CN(C)C1CSC(C#N)(c2cccc(C(F)(F)F)c2)SC1 (centres undefined) |  | 18 (≈ 54.1 µM) | 100 | 95 | 100 |
| CC(C)NC(=O)C1(C#N)SCC(N(C)C)CS1 (centres undefined) | 40 | 40 (≈ 146 µM) | 100 | 20 | 100 |
| CN(C)C1CSC(C#N)(c2ccccc2F)SC1 (centres undefined) |  | 15 (≈ 53.1 µM) | 100 | 55 | 100 |

| Structure (SMILES) | mortality at 500 ppm (Spodoptera litura) [%] | LC50 [1] [µg/mL] | mortality at 500 ppm (Tetranychus urticae) [%] | mortality at 50 ppm (Laodelphax striatellus) [%] | mortality (Chilo suppressalis) [%] |
| --- | --- | --- | --- | --- | --- |
| CN(C)C1CSC(C#N)(c2ccc(Br)cc2)SC1 (centres undefined) |  | 25 (≈ 72.8 µM) | 100 | 100 | 100 |
| CN(C)C1CSC(C#N)(c2cccc(Cl)c2)SC1 (centres undefined) |  | 10 (≈ 33.5 µM) | 80 | 85 | 100 |
| CCCNC(=O)C1(C#N)SCC(N(C)C)CS1 (centres undefined) | 60 | 11 (≈ 40.2 µM) | 100 | 20 | 100 |
| CN(C)C1CSC(C#N)(c2cccc(F)c2)SC1 (centres undefined) |  | 18 (≈ 63.7 µM) | 100 | 85 | 100 |
| CCCCCCCCNC(=O)C1(C#N)SCC(N(C)C)CS1 (centres undefined) | 80 | 23 (≈ 66.9 µM) | 100 | 80 | 100 |
| CN(C)C1CSC(C#N)(c2ccc(F)cc2)SC1 (centres undefined) |  | 130 (≈ 460 µM) | 100 | 15 | 100 |
| CN(C)C1CSC(C#N)(c2ccc(N)cc2)SC1 (centres undefined) |  | 25 (≈ 89.5 µM) | 100 | 45 | 100 |
| CN(C)C1CSC(C#N)(c2ccc(Cl)cc2)SC1 (centres undefined) |  | 120 (≈ 402 µM) | 100 | 75 | 100 |
| CN(C)C1CSC(C#N)(C(N)=O)SC1 (centres undefined) | 100 | 30 (≈ 130 µM) | 100 | 35 | 100 |
| Cc1cccc(C2(C#N)SCC(N(C)C)CS2)c1 (centres undefined) |  | 120 (≈ 431 µM) | 80 | 30 | 100 |
| Cc1ccc(C)c(C2(C#N)SCC(N(C)C)CS2)c1 (centres undefined) |  | 25 (≈ 85.5 µM) | 100 | 15 | 100 |
| CN1CCN(C(=O)C2(C#N)SCC(N(C)C)CS2)CC1 (centres undefined) | 20 | 20 (≈ 63.6 µM) | 100 | 35 | 100 |
| CN(C)C1CSC(C#N)(c2cccc([N+](=O)[O-])c2)SC1 (centres undefined) |  | 15 (≈ 48.5 µM) | 100 | 70 | 100 |
| CN(C)C1CSC(C#N)(C(=O)NC2CCCCC2)SC1 (centres undefined) | 50 | 25 (≈ 79.7 µM) | 80 | 40 | 100 |
| CN(C)C1CSC(C#N)(c2ccc([N+](=O)[O-])cc2)SC1 (centres undefined) |  | 18 (≈ 58.2 µM) | 60 | 95 | 100 |
| CCC(C)NC(=O)C1(C#N)SCC(N(C)C)CS1 (centres undefined) | 80 | 33 (≈ 115 µM) | 100 | 25 | 100 |
| CCCCCCCCCCNC(=O)C1(C#N)SCC(N(C)C)CS1 (centres undefined) | 50 | 20 (≈ 53.8 µM) | 90 | 85 | 100 |
| CCN(CC)C(=O)C1(C#N)SCC(N(C)C)CS1 (centres undefined) | 80 | 15 (≈ 52.2 µM) | 80 | 24 | 100 |
| CN(C)C(=O)C1(C#N)SCC(N(C)C)CS1 (centres undefined) | 80 | 11 (≈ 42.4 µM) | 70 | 20 | 100 |
| CN(C)C1CSC(C#N)(c2ccccc2Cl)SC1 (centres undefined) |  | 15 (≈ 50.2 µM) | 100 | 95 | 100 |
| CCCCNC(=O)C1(C#N)SCC(N(C)C)CS1 (centres undefined) | 80 | 40 (≈ 139 µM) | 100 | 20 | 100 |
| CN(C)C1CSC(C#N)(c2ccccc2)SC1 (centres undefined) |  | 200 (≈ 756 µM) | 10 | 15 | 100 |
| CN(C)C1CSC(C#N)(c2ccccc2Br)SC1 (centres undefined) |  | 10 (≈ 29.1 µM) | 100 | 85 | 100 |
| CN(C)C1CSC(C#N)(c2ccc(Cl)c(Cl)c2)SC1 (centres undefined) |  | 12 (≈ 36 µM) | 50 | 40 | 100 |
